Laboratory results from ChEMBL document CHEMBL5331074, “Design and synthesis of new adamantyl derivatives as promising antiproliferative agents” (Eur J Med Chem, 2023).
Activity calls are given as the source filed them. The calls are words filed in the database; no cut-off is given here.

Columns and labels:
[1] = target: Ectonucleotide pyrophosphatase/phosphodiesterase family member 1 (Homo sapiens, UniProt P22413); assay: Inhibition of human NPP1 expressed in COS-7 cells using pNP-TMP as substrate preincubated for 10 mins followed by substrate addition and measured after 35 mins by microplate reader analysis; format: cell-based
HOP-62 = assay: Cytotoxicity against human HOP-62 cells assessed as cell growth inhibition; format: functional, cell-based
SNB-19 = assay: Cytotoxicity against human SNB-19 cells assessed as cell growth inhibition; format: functional, cell-based
BT-549 = assay: Cytotoxicity against human BT-549 cells assessed as cell growth inhibition; format: functional, cell-based
DU-145 = assay: Cytotoxicity against human DU-145 cells assessed as cell growth inhibition; format: functional, cell-based
Carbonic anhydrase 9 = Carbonic anhydrase 9 (Homo sapiens, UniProt Q16790)
Description: Inhibition of Carbonic anhydrase 9 (unknown origin) using p-nitrophenyl acetate as substrate preincubated for 10 mins followed by substrate addition and measured after 30 mins by microplate reader method

SK-MEL-2 = assay: Cytotoxicity against human SK-MEL-2 cells assessed as cell growth inhibition; format: functional, cell-based
NCI-H322M = assay: Cytotoxicity against human NCI-H322M cells assessed as cell growth inhibition; format: functional, cell-based
UACC-257 = assay: Cytotoxicity against human UACC-257 cells assessed as cell growth inhibition; format: functional, cell-based
K562 = assay: Cytotoxicity against human K562 cells assessed as cell growth inhibition; format: functional, cell-based
SR = assay: Cytotoxicity against human SR cells assessed as cell growth inhibition; format: functional, cell-based
U-251 = assay: Cytotoxicity against human U-251 cells assessed as cell growth inhibition; format: functional, cell-based
786-0 = assay: Cytotoxicity against human 786-0 cells assessed as cell growth inhibition; format: functional, cell-based
MDA-MB-231 = assay: Cytotoxicity against human MDA-MB-231 cells assessed as cell growth inhibition; format: functional, cell-based
HCT-116 = assay: Cytotoxicity against human HCT-116 cells assessed as cell growth inhibition; format: functional, cell-based
[2] = target: Ectonucleotide pyrophosphatase/phosphodiesterase family member 3 (Homo sapiens, UniProt O14638); assay: Inhibition of human NPP3 expressed in COS-7 cells using pNP-TMP as substrate preincubated for 10 mins followed by substrate addition and measured after 35 mins by microplate reader analysis; format: cell-based
HT-29 [3] = assay: Cytotoxicity against human HT-29 assessed as cell growth inhibition; format: functional, cell-based
RXF 393 = assay: Cytotoxicity against human RXF 393 cells assessed as cell growth inhibition; format: functional, cell-based
[4] = Cytotoxicity against human hTERT-HME1 cells assessed as cell growth inhibition; format: toxicity, cell-based
[5] = Selectivity index, ratio of IC50 for cytotoxicity against human hTERT-HME1 cells to IC50 for cytotoxicity against human BT-549 cells
NCI-H226 = assay: Cytotoxicity against human NCI-H226 cells assessed as cell growth inhibition; format: functional, cell-based
A549 = assay: Cytotoxicity against human A549 cells assessed as cell growth inhibition; format: functional, cell-based
LOX IMVI = assay: Cytotoxicity against human LOX IMVI cells assessed as cell growth inhibition; format: functional, cell-based
UACC-62 = assay: Cytotoxicity against human UACC-62 cells assessed as cell growth inhibition; format: functional, cell-based
MDA-MB-468 = assay: Cytotoxicity against human MDA-MB-468 cells assessed as cell growth inhibition; format: functional, cell-based
IGROV-1 = assay: Cytotoxicity against human IGROV-1 cells assessed as cell growth inhibition; format: functional, cell-based
OVCAR-5 = assay: Cytotoxicity against human OVCAR-5 cells assessed as cell growth inhibition; format: functional, cell-based
HCT-15 = assay: Cytotoxicity against human HCT-15 cells assessed as cell growth inhibition; format: functional, cell-based
NCI/ADR-RES = assay: Cytotoxicity against human NCI/ADR-RES cells assessed as cell growth inhibition; format: functional, cell-based
SK-MEL-28 = assay: Cytotoxicity against human SK-MEL-28 cells assessed as cell growth inhibition; format: functional, cell-based
HCC 2998 = assay: Cytotoxicity against human HCC 2998 cells assessed as cell growth inhibition; format: functional, cell-based
SN12C = assay: Cytotoxicity against human SN12C cells assessed as cell growth inhibition; format: functional, cell-based
NCI-H522 = assay: Cytotoxicity against human NCI-H522 cells assessed as cell growth inhibition; format: functional, cell-based
M14 = assay: Cytotoxicity against human M14 cells assessed as cell growth inhibition; format: functional, cell-based
Hs-578T = assay: Cytotoxicity against human Hs-578T cells assessed as cell growth inhibition; format: functional, cell-based
NCI-H23 = assay: Cytotoxicity against human NCI-H23 cells assessed as cell growth inhibition; format: functional, cell-based
KM12 = assay: Cytotoxicity against human KM12 cells assessed as cell growth inhibition; format: functional, cell-based
ACHN = assay: Cytotoxicity against human ACHN cells assessed as cell growth inhibition; format: functional, cell-based
Malme-3M = assay: Cytotoxicity against human Malme-3M cells assessed as cell growth inhibition; format: functional, cell-based
SK-OV-3 = assay: Cytotoxicity against human SK-OV-3 cells assessed as cell growth inhibition; format: functional, cell-based
SNB-75 = assay: Cytotoxicity against human SNB-75 cells assessed as cell growth inhibition; format: functional, cell-based
NCI-H460 = assay: Cytotoxicity against human NCI-H460 cells assessed as cell growth inhibition; format: functional, cell-based
HT-29 [6] = assay: Cytotoxicity against human HT-29 assessed as mean growth inhibition; format: functional
PC-3 = assay: Cytotoxicity against human PC-3 cells assessed as cell growth inhibition; format: functional, cell-based
RPMI-8226 = assay: Cytotoxicity against human RPMI-8226 cells assessed as cell growth inhibition; format: functional, cell-based
OVCAR-4 = assay: Cytotoxicity against human OVCAR-4 cells assessed as cell growth inhibition; format: functional, cell-based
SF-268 = assay: Cytotoxicity against human SF-268 cells assessed as cell growth inhibition; format: functional, cell-based
SF-539 = assay: Cytotoxicity against human SF-539 cells assessed as cell growth inhibition; format: functional, cell-based
SW-620 = assay: Cytotoxicity against human SW620 cells assessed as cell growth inhibition; format: functional, cell-based
Autotaxin = Autotaxin (Homo sapiens, UniProt Q13822); assay: Inhibition of human NPP2 expressed in COS-7 cells using pNP-TMP as substrate preincubated for 10 mins followed by substrate addition and measured after 35 mins by microplate reader analysis; format: cell-based
UO-31 = assay: Cytotoxicity against human UO-31 cells assessed as cell growth inhibition; format: functional, cell-based
HL-60(TB) = assay: Cytotoxicity against human HL-60(TB) cells assessed as cell growth inhibition; format: functional, cell-based
MDA-MB-435 = assay: Cytotoxicity against human MDA-MB-435 cells assessed as cell growth inhibition; format: functional, cell-based
MCF7 = assay: Cytotoxicity against human MCF7 cells assessed as cell growth inhibition; format: functional, cell-based
HT-29 [7] = assay: Cytotoxicity against human HT-29 cells assessed as cell growth inhibition; format: functional, cell-based
T47D = assay: Cytotoxicity against human T47D cells assessed as cell growth inhibition; format: functional, cell-based
COLO 205 = assay: Cytotoxicity against human COLO 205 cells assessed as cell growth inhibition; format: functional, cell-based
OVCAR-8 = assay: Cytotoxicity against human OVCAR-8 cells assessed as cell growth inhibition; format: functional, cell-based
HOP-92 = assay: Cytotoxicity against human HOP-92 cells assessed as cell growth inhibition; format: functional, cell-based
SF-295 = assay: Cytotoxicity against human SF-295 cells assessed as cell growth inhibition; format: functional, cell-based
TK-10 = assay: Cytotoxicity against human TK-10 cells assessed as cell growth inhibition; format: functional, cell-based
A498 = assay: Cytotoxicity against human A498 cells assessed as cell growth inhibition; format: functional, cell-based

Ectonucleotide pyrophosphatase/phosphodiesterase family member 3, sequence (O14638 whole entry): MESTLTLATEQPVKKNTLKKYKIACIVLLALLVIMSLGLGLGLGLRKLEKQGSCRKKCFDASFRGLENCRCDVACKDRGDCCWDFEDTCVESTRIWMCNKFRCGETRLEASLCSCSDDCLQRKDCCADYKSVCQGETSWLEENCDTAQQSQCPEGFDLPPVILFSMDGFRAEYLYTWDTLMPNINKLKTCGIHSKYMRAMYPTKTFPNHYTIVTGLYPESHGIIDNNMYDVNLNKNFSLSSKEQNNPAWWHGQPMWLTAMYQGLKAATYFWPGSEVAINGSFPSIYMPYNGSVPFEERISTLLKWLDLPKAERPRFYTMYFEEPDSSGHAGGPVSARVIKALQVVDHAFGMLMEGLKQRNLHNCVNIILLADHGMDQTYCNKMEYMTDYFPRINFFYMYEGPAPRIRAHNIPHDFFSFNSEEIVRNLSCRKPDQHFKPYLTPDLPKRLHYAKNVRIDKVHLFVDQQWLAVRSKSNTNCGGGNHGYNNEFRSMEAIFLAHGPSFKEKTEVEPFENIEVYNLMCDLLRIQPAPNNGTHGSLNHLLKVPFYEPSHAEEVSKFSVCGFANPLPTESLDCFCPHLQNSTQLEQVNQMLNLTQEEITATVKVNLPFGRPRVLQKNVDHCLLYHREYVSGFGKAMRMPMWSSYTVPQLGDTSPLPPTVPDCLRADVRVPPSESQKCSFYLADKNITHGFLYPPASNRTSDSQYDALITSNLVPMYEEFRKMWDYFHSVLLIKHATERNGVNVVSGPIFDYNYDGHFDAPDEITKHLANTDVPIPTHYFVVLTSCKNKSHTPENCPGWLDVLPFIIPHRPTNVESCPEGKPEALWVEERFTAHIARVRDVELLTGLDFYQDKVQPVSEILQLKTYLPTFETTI
Ectonucleotide pyrophosphatase/phosphodiesterase family member 1, sequence (P22413 whole entry): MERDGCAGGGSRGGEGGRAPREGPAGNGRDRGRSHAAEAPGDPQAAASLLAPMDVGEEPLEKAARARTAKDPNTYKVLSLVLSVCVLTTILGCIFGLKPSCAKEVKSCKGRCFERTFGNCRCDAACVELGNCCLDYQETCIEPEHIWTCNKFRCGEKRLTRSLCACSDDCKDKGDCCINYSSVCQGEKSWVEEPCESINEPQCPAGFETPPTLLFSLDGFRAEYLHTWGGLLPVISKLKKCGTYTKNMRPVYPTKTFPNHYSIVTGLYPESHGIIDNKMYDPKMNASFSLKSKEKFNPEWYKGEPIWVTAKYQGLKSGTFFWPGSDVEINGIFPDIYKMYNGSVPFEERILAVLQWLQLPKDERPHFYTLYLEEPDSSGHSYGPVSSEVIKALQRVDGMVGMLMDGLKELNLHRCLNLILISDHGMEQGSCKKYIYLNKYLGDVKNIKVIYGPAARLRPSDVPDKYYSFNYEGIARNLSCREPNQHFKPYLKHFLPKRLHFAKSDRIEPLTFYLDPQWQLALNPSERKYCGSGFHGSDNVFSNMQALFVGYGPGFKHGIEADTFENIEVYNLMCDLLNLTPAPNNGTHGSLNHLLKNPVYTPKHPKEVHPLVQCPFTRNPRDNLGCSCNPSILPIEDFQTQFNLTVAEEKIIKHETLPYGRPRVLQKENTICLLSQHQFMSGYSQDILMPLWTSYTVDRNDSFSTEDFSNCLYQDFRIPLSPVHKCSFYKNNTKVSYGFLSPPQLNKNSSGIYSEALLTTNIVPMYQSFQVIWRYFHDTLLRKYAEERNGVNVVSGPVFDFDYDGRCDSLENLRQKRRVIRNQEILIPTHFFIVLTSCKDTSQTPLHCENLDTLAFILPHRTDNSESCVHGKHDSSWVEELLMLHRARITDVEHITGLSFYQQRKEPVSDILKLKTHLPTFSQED

SMILES: O=C(Nc1ccc(OS(=O)(=O)c2ccc(F)cc2)cc1)C12CC3CC(CC(C3)C1)C2
- IC50 [1]: 1.13 µM
- IC50 (HOP-62): 11.1 µM
- IC50 (SNB-19): 15.7 µM
- IC50 (BT-549): 4.28 µM
- IC50 (DU-145): 10.6 µM
- IC50 (Carbonic anhydrase 9): 0.33 µM
- IC50 (SK-MEL-2): 10.5 µM
- IC50 (NCI-H322M): 5.55 µM
- IC50 (UACC-257): 3.4 µM
- IC50 (K562): 0.58 µM
- IC50 (SR): 3.6 µM
- IC50 (U-251): 19.4 µM
- IC50 (786-0): 5.08 µM
- IC50 (MDA-MB-231): 1.87 µM
- IC50 (HCT-116): 0.63 µM
- IC50 [2]: 0.74 µM
- inhibition (HT-29 [3]): Active
- IC50 (RXF 393): 4.76 µM
- IC50 [4]: > 50 µM
- Ratio IC50 [5]: 11.7
- IC50 (NCI-H226): 19.2 µM
- IC50 (A549): 2.3 µM
- IC50 (LOX IMVI): 7.57 µM
- IC50 (UACC-62): 3.14 µM
- IC50 (MDA-MB-468): 1.01 µM
- IC50 (IGROV-1): 10.4 µM
- IC50 (OVCAR-5): 28.8 µM
- IC50 (HCT-15): 0.42 µM
- IC50 (NCI/ADR-RES): 0.94 µM
- IC50 (SK-MEL-28): 28.7 µM
- IC50 (HCC 2998): 7.95 µM
- IC50 (SN12C): 19 µM
- IC50 (NCI-H522): 3.39 µM
- IC50 (M14): 6.02 µM
- IC50 (Hs-578T): 2.29 µM
- IC50 (NCI-H23): 7.71 µM
- IC50 (KM12): 0.72 µM
- IC50 (ACHN): 15.7 µM
- IC50 (Malme-3M): 4.07 µM
- IC50 (SK-OV-3): 7.83 µM
- IC50 (SNB-75): 1.97 µM
- IC50 (NCI-H460): 2.3 µM
- inhibition (INH) (HT-29 [6]): 63.5%
- IC50 (PC-3): 0.49 µM
- IC50 (RPMI-8226): 2.15 µM
- IC50 (OVCAR-4): 1.61 µM
- IC50 (SF-268): 20.8 µM
- IC50 (SF-539): 0.76 µM
- IC50 (SW-620): 0.41 µM
- IC50 (Autotaxin): 1.07 µM
- IC50 (UO-31): 3.43 µM
- IC50 (HL-60(TB)): 2.68 µM
- IC50 (MDA-MB-435): 7.8 µM
- IC50 (MCF7): 0.59 µM
- IC50 (HT-29 [7]): 0.2 µM
- IC50 (T47D): 0.83 µM
- IC50 (COLO 205): 0.58 µM
- IC50 (OVCAR-8): 12.8 µM
- IC50 (HOP-92): 1.06 µM
- IC50 (SF-295): 1.81 µM
- IC50 (TK-10): 20.2 µM
- IC50 (A498): 0.28 µM

SMILES: O=C(Nc1ccc(OS(=O)(=O)c2ccccc2)cc1)C12CC3CC(CC(C3)C1)C2
- IC50 [1]: 1.36 µM
- IC50 (HOP-62): > 100 µM
- IC50 (SNB-19): > 100 µM
- IC50 (BT-549): 3.24 µM
- IC50 (DU-145): > 100 µM
- IC50 (Carbonic anhydrase 9): 1.02 µM
- IC50 (SK-MEL-2): > 100 µM
- IC50 (NCI-H322M): > 100 µM
- IC50 (UACC-257): 13.5 µM
- IC50 (K562): 0.32 µM
- IC50 (SR): 0.58 µM
- IC50 (U-251): 4.81 µM
- IC50 (786-0): 3.8 µM
- IC50 (MDA-MB-231): 3.79 µM
- IC50 (HCT-116): 2.5 µM
- IC50 [2]: 3 µM
- inhibition (HT-29 [3]): Active
- IC50 (RXF 393): 5.12 µM
- IC50 [4]: > 50 µM
- Ratio IC50 [5]: 15.4
- IC50 (NCI-H226): 27.7 µM
- IC50 (A549): 6.9 µM
- IC50 (LOX IMVI): 4.38 µM
- IC50 (UACC-62): 6.47 µM
- IC50 (MDA-MB-468): 3.8 µM
- IC50 (IGROV-1): > 100 µM
- IC50 (OVCAR-5): > 100 µM
- IC50 (HCT-15): 1 µM
- IC50 (NCI/ADR-RES): 5.75 µM
- IC50 (SK-MEL-28): > 100 µM
- IC50 (HCC 2998): 5.48 µM
- IC50 (SN12C): > 100 µM
- IC50 (NCI-H522): 4.36 µM
- IC50 (M14): 7.2 µM
- IC50 (Hs-578T): 7.29 µM
- IC50 (NCI-H23): 6.68 µM
- IC50 (KM12): 2.1 µM
- IC50 (ACHN): > 100 µM
- IC50 (Malme-3M): > 100 µM
- IC50 (SK-OV-3): > 100 µM
- IC50 (SNB-75): 7.16 µM
- IC50 (NCI-H460): 6.1 µM
- inhibition (INH) (HT-29 [6]): 85.4%
- IC50 (PC-3): 2.9 µM
- IC50 (RPMI-8226): 0.4 µM
- IC50 (OVCAR-4): 8.38 µM
- IC50 (SF-268): > 100 µM
- IC50 (SF-539): 0.96 µM
- IC50 (SW-620): 1.97 µM
- IC50 (Autotaxin): 1.35 µM
- IC50 (UO-31): 18.7 µM
- IC50 (HL-60(TB)): 8.39 µM
- IC50 (MDA-MB-435): > 100 µM
- IC50 (MCF7): 3.26 µM
- IC50 (HT-29 [7]): 0.4 µM
- IC50 (T47D): 3.57 µM
- IC50 (COLO 205): 0.87 µM
- IC50 (OVCAR-8): > 100 µM
- IC50 (HOP-92): 1.87 µM
- IC50 (SF-295): 8.27 µM
- IC50 (TK-10): > 100 µM
- IC50 (A498): 2.04 µM
